Like-named read-outs stand apart in the source and are kept apart here.
What was measured:
[1] = target: T1, EGFR protein in NCI-H1975 EGFR-L858R-T790M-C797S cells (Homo sapiens, UniProt P00533, C797S/L858R/T790M); experiment: Degradation activity on EGFR protein in NCI-H1975 EGFR-L858R-T790M-C797S cells, Method II (western blot, 48 h); type: cell-based; settings: 48 h incubation, EGFR protein relative to DMSO control
T1 construct: expressed in transfected cells; host or cells: NCI-H1975 EGFR-L858R-T790M-C797S (kept under hygromycin selection)
Procedure: (§1) Protein sample preparation: NCI-H1975 EGFR-L858R-T790M-C797S cells were cultured in an incubator at 37° C. with 5% CO2, and the culture medium was RPMI1640+10% FBS+100 μg/mL hygromycin. The cells in the logarithmic phase were collected, and the cell suspension was adjusted to an appropriate concentration with a hygromycin-free culture medium, plated on a 6-well plate at a density of 350000 cells/well and a volume of 2 mL, and cultured overnight in an incubator at 37° C. with 5% CO2. The next day, the compounds at different concentrations were added. DMSO control wells were provided, wherein the concentration of DMSO in all wells was 0.1%. The 6-well plate was cultured in an incubator at 37° C. with 5% CO2 for 48 h, and then 30 μL of RIPA lysates (Beyotime, Cat. P0013B) containing protease inhibitors (Beyotime, Cat. P0013B) were added. The mixtures were lysed on ice for 30 min. Centrifugation was carried out at 13000 rpm/min at 4° C. for 20 minutes to collect protein supernatant samples, and protein quantification was performed by the BCA method. Western Blot detection samples were prepared.
(§2) Western blot detection: 20 μg of protein samples were added to each well, subjected to polyacrylamide gel electrophoresis and transferred to a membrane, and then diluted anti-EGFR (CST, Cat. 4267S) and […] (Kangchen, Cat. KC-5G4) antibodies were added and incubated overnight at 4° C. After washing the membrane, diluted goat anti-rabbit (Licor, Cat. 926-32211) and goat anti-mouse (Licor, Cat. 926-68070) antibodies were added and incubated in the dark for 45 min. Scanning and detection at wavelengths of 700 nm and 800 nm were performed with a far-infrared imaging system (Odyssey).
(§3) According to formula (3), the expression level of EGFR protein in the cells relative to the DMSO control group was calculated after incubation with different concentrations of compounds. wherein EGFRcompound was the fluorescence value of EGFR protein after incubation with compounds, and EGFRvehicle was the fluorescence value of EGFR protein in the DMSO control group. Using the Origin 9.2 software, the drug concentration DC50 values when the expression level of EGFR protein was 50% relative to the DMSO control group were calculated.

[2] = system: NCI-H1975 (EGFR-L858R-T790M) cells; experiment: Inhibitory activity on proliferation of NCI-H1975 (EGFR-L858R-T790M) cells (CTG, 72 h); type: cell-based; settings: Homo sapiens
Procedure, shortened: (§4)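 Cells plated at 1000/well (NCI-H1975, RPMI1640+10% FBS) or 3000/well (A431, DMEM+10% FBS), dosed next day with compounds (0.1% DMSO final) for 72 h at 37 °C, 5% CO2. Viability by CTG luminescence, normalised to vehicle control; IC50 from nonlinear-regression dose-survival curves.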

A431 (EGFR-WT) cells = experiment: Inhibitory activity on proliferation of A431 (EGFR-WT) cells (CTG, 72 h); type: cell-based; settings: Homo sapiens, A-431
Procedure, shortened: as §4

[3] = Pharmacokinetic test in mice; type: in vivo; settings: male, ICR, mouse, po, administration i.g. (10 mg/kg), plasma
Procedure, shortened: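 Male ICR mice (20-25 g), fasted 12-14 h before dosing and fed 4 h after, received a single intravenous or intragastric dose. Orbital plasma sampled from 0 to 24 h (5 min-24 h points); LC-MS/MS quantitation for PK parameters and bioavailability.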

[4] = target: T1, EGFR protein in NCI-H1975 EGFR-L858R-T790M-C797S cells; experiment: Degradation activity on EGFR protein in NCI-H1975 EGFR-L858R-T790M-C797S cells, Method I (western blot, 72 h); type: cell-based; settings: 72 h incubation, EGFR protein relative to DMSO control
Procedure: as §1, with “200000” for “350000”, “72” for “48”, “min” for “minutes”, “Samples for western blot” for “Western Blot”, “detection” for “detection samples”
as §2, §3

[5] = system: NCI-H1975 EGFR-L858R-T790M-C797S cells; experiment: Inhibitory activity on proliferation of NCI-H1975 EGFR-L858R-T790M-C797S cells (CellTiter-Glo, 72 h); type: cell-based; settings: Homo sapiens
Procedure, shortened: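 Cells (1500/well) exposed to graded compound concentrations for 72 h at 37 °C in hygromycin-free RPMI1640 + 10% FBS, 0.1% DMSO vehicle. Viability by CellTiter-Glo luminescence relative to vehicle; IC50 from nonlinear sigmoidal dose-survival fit.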

[6] = read-out: IC50 (value in brackets)

T1 sequence (P00533 25-1210 T790M/C797S/L858R): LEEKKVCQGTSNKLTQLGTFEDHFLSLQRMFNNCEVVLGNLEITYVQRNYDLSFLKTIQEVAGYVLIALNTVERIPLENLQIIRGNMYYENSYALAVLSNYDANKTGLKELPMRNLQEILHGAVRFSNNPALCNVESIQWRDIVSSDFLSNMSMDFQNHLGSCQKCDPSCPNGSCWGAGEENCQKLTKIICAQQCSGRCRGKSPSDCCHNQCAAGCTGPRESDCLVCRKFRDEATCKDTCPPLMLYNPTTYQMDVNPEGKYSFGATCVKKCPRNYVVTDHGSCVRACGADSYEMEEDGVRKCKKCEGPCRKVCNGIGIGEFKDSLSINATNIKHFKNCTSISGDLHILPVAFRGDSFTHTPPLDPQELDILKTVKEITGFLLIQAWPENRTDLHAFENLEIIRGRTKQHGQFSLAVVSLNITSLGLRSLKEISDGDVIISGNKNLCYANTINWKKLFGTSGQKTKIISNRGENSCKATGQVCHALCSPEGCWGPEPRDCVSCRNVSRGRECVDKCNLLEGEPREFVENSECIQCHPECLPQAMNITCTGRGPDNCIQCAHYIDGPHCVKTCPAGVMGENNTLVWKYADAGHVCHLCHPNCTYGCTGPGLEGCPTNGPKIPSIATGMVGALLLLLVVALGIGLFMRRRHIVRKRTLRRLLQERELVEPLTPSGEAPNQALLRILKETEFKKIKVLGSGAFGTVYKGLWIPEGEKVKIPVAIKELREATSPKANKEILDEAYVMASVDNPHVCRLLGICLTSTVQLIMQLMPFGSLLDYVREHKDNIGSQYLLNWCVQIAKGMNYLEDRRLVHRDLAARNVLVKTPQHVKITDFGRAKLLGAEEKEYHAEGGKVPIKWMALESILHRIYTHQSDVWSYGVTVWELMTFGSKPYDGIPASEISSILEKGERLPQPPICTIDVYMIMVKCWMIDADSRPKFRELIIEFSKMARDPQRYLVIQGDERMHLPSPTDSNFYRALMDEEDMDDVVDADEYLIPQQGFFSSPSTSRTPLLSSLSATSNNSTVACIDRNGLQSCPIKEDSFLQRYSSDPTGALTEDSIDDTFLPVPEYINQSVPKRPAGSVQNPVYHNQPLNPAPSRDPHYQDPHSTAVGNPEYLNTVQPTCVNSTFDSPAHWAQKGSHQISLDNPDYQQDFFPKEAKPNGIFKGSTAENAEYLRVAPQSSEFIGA

SMILES	DC50 [1] [nM]	IC50 ([2]; read-out: IC50 (class symbol)) [nM]	IC50 [2, 6] [nM]	IC50 (A431 (EGFR-WT) cells) [nM]	AUC [3] [ng·h/mL]	half-life [3] [h]	DC50 [4] [nM]	IC50 ([5]; read-out: IC50 (class symbol)) [nM]	IC50 ([5]; read-out: IC50 (value)) [nM]	AUC(0-t) [3] [ng·h/mL]
COc1cc(N2CCN(C[C@@H]3CCN(c4ccc5c(c4)C(=O)N(C4CCC(=O)NC4=O)C5=O)C3)CC2)c(-c2cnn(C)c2)cc1Nc1ncc(Br)c(Nc2ccc(-c3ccccc3F)cc2P(C)(C)=O)n1 (stereo partly drawn) [Compound 116, 5-((S)-3-((4-(4-((5-bromo-4-((3-(dimethylphosphoryl)-2′-fluoro-[1,1′-biphenyl]-4-yl)amino)pyrimidin-2-yl)amino)-5-methoxy-2-(1-methyl-1H-pyrazol-4-yl)phenyl)piperazin-1-yl)methyl)pyrrolidin-1-yl)-2-(2,6-dioxopiperidin-3-yl)isoindoline-1,3-dione]	< 100	< 100	94	≥ 10000	–	–	–	–	–	–
COc1cc(N2CCC(CN3CCN(c4ccc5c(c4)C(=O)N(C4CCC(=O)NC4=O)C5=O)CC3)CC2)c(-c2cnn(C)c2)cc1Nc1ncc(Cl)c(Nc2ccccc2P(C)(C)=O)n1 (stereo not shown) [Compound 109, 5-(4-((1-(4-((5-chloro-4-((2-(dimethylphosphoryl)phenyl)amino)pyrimidin-2-yl)amino)-5-methoxy-2-(1-methyl-1H-pyrazol-4-yl)phenyl)piperidin-4-yl)methyl)piperazin-1-yl)-2-(2,6-dioxopiperidin-3-yl)isoindoline-1,3-dione]	< 100	< 100	52	≥ 10000	81500	4.53	–	–	–	–
COc1cc(N2CCC(N3CCN(CC4CCN(c5ccc6c(c5)C(=O)N(C5CCC(=O)NC5=O)C6=O)CC4)CC3)CC2)c(-c2cnn(C)c2)cc1Nc1ncc(Br)c(Nc2ccc(-c3ccccc3F)cc2P(C)(C)=O)n1 (stereo not shown) [Compound 54, 5-(4-((4-(1-(4-((5-bromo-4-((3-(dimethylphosphoryl)-2′-fluoro-[1,1′-biphenyl]-4-yl)amino)pyrimidin-2-yl)amino)-5-methoxy-2-(1-methyl-1H-pyrazol-4-yl)phenyl)piperidin-4-yl)piperazin-1-yl)methyl)piperidin-1-yl)-2-(2,6-dioxopiperidin-3-yl)isoindoline-1,3-dione]	–	< 100	69	≥ 10000	–	–	< 100	< 200	56	29800
COc1cc(N2CCN(CC3CCN(c4ccc5c(c4)C(=O)N(C4CCC(=O)NC4=O)C5=O)CC3)CC2)c(-c2cnn(C)c2)cc1Nc1ncc(Cl)c(Nc2ccc(-c3ccccc3)cc2P(C)(C)=O)n1 (stereo not shown) [Compound 90, 5-(4-((4-(4-((5-chloro-4-((3-(dimethylphosphoryl)-[1,1′-biphenyl]-4-yl)amino)pyrimidin-2-yl)amino)-5-methoxy-2-(1-methyl-1H-pyrazol-4-yl)phenyl)piperazin-1-yl)methyl)piperidin-1-yl)-2-(2,6-dioxopiperidin-3-yl)isoindoline-1,3-dione]	–	< 100	46	≥ 10000	35900	4.16	< 100	< 200	68	–

Now from value to compound:

DC50 [1] [nM]	IC50 ([2]; read-out: IC50 (class symbol)) [nM]	IC50 [2, 6] [nM]	IC50 (A431 (EGFR-WT) cells) [nM]	AUC [3] [ng·h/mL]	half-life [3] [h]	DC50 [4] [nM]	IC50 ([5]; read-out: IC50 (class symbol)) [nM]	IC50 ([5]; read-out: IC50 (value)) [nM]	AUC(0-t) [3] [ng·h/mL]	SMILES
< 100	< 100	68	≥ 10000	–	–	–	–	–	–	COc1cc(N2CCC(N3CCN(c4ccc5c(c4)C(=O)N(C4CCC(=O)NC4=O)C5=O)CC3)CC2)c(-c2cnn(C)c2)cc1Nc1ncc(Cl)c(Nc2ccc(C3CC3)cc2P(C)(C)=O)n1 (stereo not shown) [Compound 113, 5-(4-(1-(4-((5-chloro-4-((4-cyclopropyl-2-(dimethylphosphoryl)phenyl)amino)pyrimidin-2-yl)amino)-5-methoxy-2-(1-methyl-1H-pyrazol-4-yl)phenyl)piperidin-4-yl)piperazin-1-yl)-2-(2,6-dioxopiperidin-3-yl)isoindoline-1,3-dione]
–	< 100	37	≥ 10000	70900	3.86	< 100	< 200	115	–	COc1cc(N2CCN(CC3CCN(c4ccc5c(c4)C(=O)N(C4CCC(=O)NC4=O)C5=O)C3)CC2)c(-c2cnn(C)c2)cc1Nc1ncc(Br)c(Nc2ccc(-c3ccccc3)cc2P(C)(C)=O)n1 (stereo not shown) [Compound 67, 5-(3-((4-(4-((5-bromo-4-((3-(dimethylphosphoryl)-[1,1′-biphenyl]-4-yl)amino)pyrimidin-2-yl)amino)-5-methoxy-2-(1-methyl-1H-pyrazol-4-yl)phenyl)piperazin-1-yl)methyl)pyrrolidin-1-yl)-2-(2,6-dioxopiperidin-3-yl)isoindoline-1,3-dione]
–	< 100	32	≥ 10000	47300	5.79	< 100	< 200	46	–	COc1cc(N2CCN(CC3CCN(c4ccc5c(c4)C(=O)N(C4CCC(=O)NC4=O)C5=O)CC3)CC2)c(-c2cnn(C)c2)cc1Nc1ncc(Br)c(Nc2ccc(-c3ccccc3)cc2P(C)(C)=O)n1 (stereo not shown) [Compound 77, 5-(4-((4-(4-((5-bromo-4-((3-(dimethylphosphoryl)-[1,1′-biphenyl]-4-yl)amino)pyrimidin-2-yl)amino)-5-methoxy-2-(1-methyl-1H-pyrazol-4-yl)phenyl)piperazin-1-yl)methyl)piperidin-1-yl)-2-(2,6-dioxopiperidin-3-yl)isoindoline-1,3-dione]
–	< 100	33	≥ 10000	–	–	< 100	< 200	57	25000	COc1cc(N2CCN(C3CCN(c4ccc5c(c4)C(=O)N(C4CCC(=O)NC4=O)C5=O)CC3)CC2)c(-c2cnn(C)c2)cc1Nc1ncc(Br)c(Nc2ccc(-c3ccccc3)cc2P(C)(C)=O)n1 (stereo not shown) [Compound 99, 5-(4-(4-(4-((5-bromo-4-((3-(dimethylphosphoryl)-[1,1′-biphenyl]-4-yl)amino)pyrimidin-2-yl)amino)-5-methoxy-2-(1-methyl-1H-pyrazol-4-yl)phenyl)piperazin-1-yl)piperidin-1-yl)-2-(2,6-dioxopiperidin-3-yl)isoindoline-1,3-dione]

Reference: patent publication US20240269298A1, “PHOSPHONYL DERIVATIVE, AND COMPOSITION AND PHARMACEUTICAL APPLICATION THEREOF” (XIZANG HAISCO PHARMACEUTICAL CO., LTD., priority 2021, published 2024)
